What was measured:
Format in all cases: in vivo, human
[1] = system: patient with pseudotumor cerebri and morning headache from sleep apnea; experiment: Treatment of patient with pseudotumor cerebri; details: for outcome of prior treatment: patient history
Description: (III) Treatment of Patient with Pseudotumor Cerebri
A patient presented with daily pseudotumor cerebri and morning headache from sleep apnea, with an intensity of 10/10. […] Patient was treated with 0.2 mg/hr nitroglycerin patch applied 2×/day to shoulder+3 pills of 250 mg sodium selenite/day (Twin Labs)

[2] = system: patients with rheumatoid arthritis; experiment: Treatment of patients with inflammatory arthropathies: rheumatoid arthritis (case reports)
Description: Treatment of Patient with Inflammatory Arthropathies […]
(b) A patient presented with Rheumatoid Arthritis with pain levels of 10/10 and the following symptoms: morning stiffness, diffuse polyarticular involvement, malaise, weakness, myalgias
Prior treatment included narcotics, antiinflammatories, corticosteroids daily.
Treatment: 0.1 mg/hr nitroglycerin patch applied 2×/day (every 12 hours) to shoulder+2 pills of 250 mg sodium selenite/day (Twin Labs) […]

[3] = system: patient with dermatomyositis; experiment: Treatment of patient with inflammatory arthropathies: dermatomyositis (case report)
Description: (c) A patient presented with a 10/10 pain level from Dermatomyositis, with the following symptoms: morning stiffness, diffuse polyarticular involvement, malaise, proximal muscle weakness, muscle tenderness
Prior treatment included narcotics, antiinflammatories, corticosteroids, disease-modifying anti-rheumatologic drugs (DMARDs) daily.
Treatment: 0.3 mg/hr nitroglycerin patch applied 2×/day (every 12 hours) to shoulder+3 pills of 250 mg sodium selenite/day (Twin Labs)

[4] = system: patients with migraine headaches; experiment: Treatment of patients with migraine headaches (case reports)
Description: (I) Treatment of Patients with Migraine Headaches […]
(d) A patient presented with an every other day migraine headache with an intensity of 10/10, and the patient stated “The headaches were so bad that I was unable to work or enjoy my life.” Prior treatment included extensive workup by neurologists.
Treatment: 0.6 mg/hr nitroglycerin patch applied 2×/day (every 12 hours) to ankle for 1 week then shoulder+2 pills of 250 mg sodium selenite/day (Twin Labs) […]

[5] = system: patients with cervicogenic tension headaches; experiment: Treatment of patients with cervicogenic tension headaches (case reports)
Description: (II) Treatment of Patients with Cervicogenic Tension Headaches
(a) A patient presented with cervicogenic tension headache with “severe” neck pain with an intensity of 7 or 8/10. The frequency of headaches was everyday and prior treatment included narcotics, NTHEs, Tylenol.
Treatment: 0.4 mg/hr nitroglycerin patch initially applied 1×/day to shoulder+2 pills of 250 mg sodium selenite/day (Twin Labs)
(b) A patient presented with cervicogenic headache with an intensity of 3-4×/wk. Prior treatment included narcotics, Tylenol, NTHEs. Patient was treated with 0.2 mg/hr nitroglycerin patch applied 1×/day applied to shoulder+2 pills of 250 mg sodium selenite/day (Twin Labs)
(c) A patient presented with migraine/cervicogenic headache with a frequency of everyday and an intensity of 7/10. Prior treatment included narcotics, NTHEs, acetaminophen, morphine cream.
Treatment: 0.4 mg/hr nitroglycerin patch applied 1×/day applied to shoulder+2 pills of 250 mg sodium selenite/day (initially) then 0.1 mg/hr nitroglycerin patch applied 1×/day applied to ankle+2 pills of 250 mg sodium selenite/day
(d) A patient presented with a daily cervicogenic tension headache, with an intensity of 10/10. Prior treatment included narcotics, Tylenol, NTHEs.
Treatment: 0.2 mg/hr nitroglycerin patch applied 1×/day to shoulder+3 pills of 250 mg sodium selenite/day (Twin Labs)
(e) A patient presented with a daily cervicogenic tension headache, with an intensity of 10/10. Prior treatment included narcotics, Tylenol, NTHEs, trigger point injections
Treatment: 0.2 mg/hr nitroglycerin patch applied 1×/day to shoulder+2 pills of 250 mg sodium selenite/day (Twin Labs)
(f) A patient presented with a daily cervicogenic tension headache, with an intensity of 7-8/10. Prior treatment included narcotics, Tylenol, NTHEs, trigger point injections
(g) A patient presented with a daily cervicogenic tension headache, with an intensity of 9-10/10. Prior treatment included narcotics, Tylenol, NTHEs, trigger point injections, BoTox which worked well for 3 months but is too expensive
Treatment: 0.2 mg/hr nitroglycerin patch applied 2×/day to shoulder+3 pills of 250 mg sodium selenite/day (Twin Labs).
(h) A patient presented with a daily cervicogenic tension headache with an intensity of 5/10. Prior treatment included narcotics, Tylenol, NTHEs, trigger point injections.
(i) A patient presented with a daily cervicogenic tension headache, with an intensity of 7-8/10. Prior treatment included narcotics, Tylenol, NTHEs, trigger point injections

[6] = system: patient with hemicrania continua; experiment: Treatment of patient with hemicrania continua; details: patient history
Description: (II) Treatment of Patient with Hemicrania Continua
A patient presented with daily hemicrania continua with an intensity of 8-9/10. […] Patient was treated with 0.2 mg/hr nitroglycerin patch applied 2×/day to shoulder+2 pills of 250 mg sodium selenite/day (Twin Labs).

[7] = dermatomyositis patient (c), patient history

SMILES: CC(=O)Nc1nnc(S(N)(=O)=O)s1 [Diamox]
- outcome of prior treatment [1]: without much success

SMILES: CNS(=O)(=O)Cc1ccc2[nH]cc(CCN(C)C)c2c1 [Imitrex, sumatriptan]
- effect of Imitrex on treatment-induced worsened headaches ([1]; patient on nitroglycerin patch + selenite): improved

SMILES: C[C@]12C=CC(=O)C=C1CC[C@@H]1[C@@H]2C(=O)C[C@@]2(C)[C@H]1CC[C@]2(O)C(=O)CO [Prednisone]
- side effects of prior treatment ([2]; RA patient (b), patient history, daily corticosteroids): Vertebral fractures and osteonecrosis
- initial response to prior treatment [3, 7]: excellent response
- side effects of prior treatment [3, 7]: steroid-induced osteoporotic rib and wrist fractures

SMILES: CNC[C@H](O)c1cccc(O)c1.Cl [SUDAFED, phenylephrine hydrochloride]
- alleviation of treatment-induced headache by SUDAFED ([4]; migraine patient (a) on nitroglycerin patch + selenite): partially alleviated
- alleviation of treatment-induced headache by SUDAFED ([4]; migraine patient (b) on nitroglycerin patch + selenite): partially alleviated
- alleviation of treatment-induced headache by SUDAFED ([4]; migraine patient (d) on nitroglycerin patch + selenite): not alleviated
- alleviation of treatment-induced headache by SUDAFED ([4]; migraine patient (h) on nitroglycerin patch + selenite): partially alleviated
- alleviation of treatment-induced headache by SUDAFED ([4]; migraine patient on nitroglycerin patch + selenite): partially alleviated
- alleviation of treatment-induced headache by SUDAFED ([4]; migraine/tension patient (c) on nitroglycerin patch + selenite): not alleviated
- alleviation of treatment-induced headache by SUDAFED ([5]; cervicogenic patient (a) on nitroglycerin patch + selenite): unalleviated
- alleviation of treatment-induced headache by SUDAFED ([5]; cervicogenic patient (g) on nitroglycerin patch + selenite): partially alleviated
- alleviation of treatment-induced headache by SUDAFED ([5]; cervicogenic patient (i) on nitroglycerin patch + selenite): totally alleviated
- alleviation of treatment-induced headache by SUDAFED ([5]; cervicogenic patient on nitroglycerin patch + selenite): alleviated
- alleviation of treatment-induced headache by SUDAFED ([2]; RA patient (a) on nitroglycerin patch + selenite): partially alleviated
- alleviation of treatment-induced headache by SUDAFED ([2]; RA patient (b) on nitroglycerin patch + selenite): partially alleviated
- alleviation of treatment-induced headache by SUDAFED ([2]; RA patient (d) on nitroglycerin patch + selenite): partially alleviated
- alleviation of treatment-induced headache by SUDAFED ([2]; RA patient (e) on nitroglycerin patch + selenite): partially alleviated
- alleviation of treatment-induced headache by SUDAFED ([3]; dermatomyositis patient (c) on nitroglycerin patch + selenite): partially alleviated

SMILES: CC1(C)O[C@@H]2[C@@H](CO[C@@]3(COS(N)(=O)=O)OC(C)(C)O[C@@H]23)O1 [Topamax]
- outcome of prior treatment ([4]; migraine patient (d), patient history): without success
- outcome of prior treatment [1]: without much success

SMILES: CC(=O)Nc1ccc(O)cc1 [Tylenol]
- outcome of prior treatment [6]: without success
- outcome of prior treatment [1]: without much success

From patent publication US20090191283A1, “TREATMENT OF HEADACHES, NECK PAIN, JOINT PAIN AND INFLAMMATORY-TYPE PAIN” (priority 2008, published 2009)
